Common to all, as to assay type: cell-based
For test [1], the target named is T1, CaV2.2 (Homo sapiens, UniProt Q00975).
T1 construct: expressed in transfected cells; host or cells: unnamed doxycycline-inducible cell line
Briefly: High-throughput CaV2.2/Kir2.3 FLIPR fluorescent assay. To be noted: Fluo-4 FLIPR, closed or inactivated state not stated, read-out: FLIPR data CaV2.2. In short, it runs like this:
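IC50 was derived by logistic fitting of the FLIPR Fluo-4 signal recorded over 3 min after a 130 mM KCl stimulus. Before stimulation, cells (channel expression induced with doxycycline, 29 °C on assay day) were kept in pH 7.4 buffer with 2 mM KCl for the closed-state format or 12.5 mM KCl for the inactivated-state format.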

Test [2] concerns the target T2, CaV3.2 (Homo sapiens, UniProt O95180).
T2 construct: expressed in transfected cells; host or cells: unnamed doxycycline-inducible cell line
Nature of the test: High-throughput CaV3.2/Kir2.3 T-type FLIPR fluorescent assay. To be noted: Fluo-4 FLIPR, closed or inactivated state not stated. As for the experimental part:
Cells were plated in 384-well, clear-bottom, black-walled, poly-D-lysine coated plates (Becton Dickinson, Franklin Lake, N.J.) 2 days prior to use in the FLIPR assay. 100 µL of cells (1.2×10^6 cell/mL) containing doxycyline (Sigma-Aldrich, 1.5 μg/mL; to induce channel expression) were added to each well using a Multidrop (Thermo Scientific, Waltham, Mass.) and were maintained in 5% CO2 incubator at 37° C. On the morning of the assay, cells were transferred to a 5% CO2 incubator at 29° C.
Cells were washed with a wash buffer containing (in mM): 118 NaCl, 18.4 HEPES, 11.7 D-glucose, 2 CaCl2, 0.5 MgSO4, 4.7 KCl, and 1.2 KH2PO4, with the pH adjusted to 7.2 with
NaOH. 4.4 μM of the fluorescent indicator dye Fluo-4 (Invitrogen) prepared in pluronic acid (Sigma-Aldrich) was loaded into the wells and incubated for 45 minutes at 29° C. in 5% CO2. Cells were then rinsed with either a 2 mM KCl closed-state buffer (in mM: 138.5 NaCl, 10 HEPES, 10 D-glucose, 1 CaCl2, and 2 KCl, with the pH adjusted to 7.4 with NaOH) when performing the closed-state assay or 7.6 mM KCl inactivated-state buffer (in mM: 130.9 NaCl, 10 HEPES, 10 D-glucose, 1 CaCl2, and 7.6 mM KCl, with the pH adjusted to 7.4 with NaOH) when performing the inactivated-state assay. Concentration-dependent response curves were generated from 5 mM stock solutions prepared in DMSO (Sigma-Aldrich), diluted in either the 2 mM KCl buffer or 7.6 mM KCl buffer, and incubated for 20 minutes at 29° C. in 5% CO2. Calcium entry was evoked with an addition of either 12 mM KCl stimulation buffer (in mM: 128.5 NaCl, 10 HEPES, 10 D-glucose, 1 CaCl2, and 12 KCl, with the pH adjusted to 7.4 with NaOH) or 14.5 mM KCl stimulation buffer (in mM: 126 NaCl, 10 HEPES, 10 D-glucose, 1 CaCl2, and 14.5 KCl, with the pH adjusted to 7.4 with NaOH) for the closed-state or inactivated-state assay respectively. A change in the Fluo-4 fluorescence signal was assessed using FLIPR^TETRA™ instrument (Molecular Devices, Sunnyvale, Calif.) for 3 minutes following the elevation of extracellular KCl using an illumination wavelength of 470-495 nm with emissions recorded at 515-575 nm.
(§1) Concentration-dependent response curves were obtained by comparing the fluorescence signal in the presence of compound and fitted with a logistic function (1) to obtain the concentration that inhibited 50% (IC50) of the RLU signal using OriginPro v.7.5 software (OriginLab, Northampton, Mass.).
(§2) To assess the quality of the FLIPR assays the Z-factor (2) was used to quantify the suitability of the assay conditions using the following equation: […]
(§3) Data are expressed as mean and standard deviation (SD).

In test [3] the target is T3, CaV3.1 (Homo sapiens, UniProt O43497).
T3 construct: expressed in transfected cells; host or cells: unnamed doxycycline-inducible cell line
T3 sequence (O43497 whole entry): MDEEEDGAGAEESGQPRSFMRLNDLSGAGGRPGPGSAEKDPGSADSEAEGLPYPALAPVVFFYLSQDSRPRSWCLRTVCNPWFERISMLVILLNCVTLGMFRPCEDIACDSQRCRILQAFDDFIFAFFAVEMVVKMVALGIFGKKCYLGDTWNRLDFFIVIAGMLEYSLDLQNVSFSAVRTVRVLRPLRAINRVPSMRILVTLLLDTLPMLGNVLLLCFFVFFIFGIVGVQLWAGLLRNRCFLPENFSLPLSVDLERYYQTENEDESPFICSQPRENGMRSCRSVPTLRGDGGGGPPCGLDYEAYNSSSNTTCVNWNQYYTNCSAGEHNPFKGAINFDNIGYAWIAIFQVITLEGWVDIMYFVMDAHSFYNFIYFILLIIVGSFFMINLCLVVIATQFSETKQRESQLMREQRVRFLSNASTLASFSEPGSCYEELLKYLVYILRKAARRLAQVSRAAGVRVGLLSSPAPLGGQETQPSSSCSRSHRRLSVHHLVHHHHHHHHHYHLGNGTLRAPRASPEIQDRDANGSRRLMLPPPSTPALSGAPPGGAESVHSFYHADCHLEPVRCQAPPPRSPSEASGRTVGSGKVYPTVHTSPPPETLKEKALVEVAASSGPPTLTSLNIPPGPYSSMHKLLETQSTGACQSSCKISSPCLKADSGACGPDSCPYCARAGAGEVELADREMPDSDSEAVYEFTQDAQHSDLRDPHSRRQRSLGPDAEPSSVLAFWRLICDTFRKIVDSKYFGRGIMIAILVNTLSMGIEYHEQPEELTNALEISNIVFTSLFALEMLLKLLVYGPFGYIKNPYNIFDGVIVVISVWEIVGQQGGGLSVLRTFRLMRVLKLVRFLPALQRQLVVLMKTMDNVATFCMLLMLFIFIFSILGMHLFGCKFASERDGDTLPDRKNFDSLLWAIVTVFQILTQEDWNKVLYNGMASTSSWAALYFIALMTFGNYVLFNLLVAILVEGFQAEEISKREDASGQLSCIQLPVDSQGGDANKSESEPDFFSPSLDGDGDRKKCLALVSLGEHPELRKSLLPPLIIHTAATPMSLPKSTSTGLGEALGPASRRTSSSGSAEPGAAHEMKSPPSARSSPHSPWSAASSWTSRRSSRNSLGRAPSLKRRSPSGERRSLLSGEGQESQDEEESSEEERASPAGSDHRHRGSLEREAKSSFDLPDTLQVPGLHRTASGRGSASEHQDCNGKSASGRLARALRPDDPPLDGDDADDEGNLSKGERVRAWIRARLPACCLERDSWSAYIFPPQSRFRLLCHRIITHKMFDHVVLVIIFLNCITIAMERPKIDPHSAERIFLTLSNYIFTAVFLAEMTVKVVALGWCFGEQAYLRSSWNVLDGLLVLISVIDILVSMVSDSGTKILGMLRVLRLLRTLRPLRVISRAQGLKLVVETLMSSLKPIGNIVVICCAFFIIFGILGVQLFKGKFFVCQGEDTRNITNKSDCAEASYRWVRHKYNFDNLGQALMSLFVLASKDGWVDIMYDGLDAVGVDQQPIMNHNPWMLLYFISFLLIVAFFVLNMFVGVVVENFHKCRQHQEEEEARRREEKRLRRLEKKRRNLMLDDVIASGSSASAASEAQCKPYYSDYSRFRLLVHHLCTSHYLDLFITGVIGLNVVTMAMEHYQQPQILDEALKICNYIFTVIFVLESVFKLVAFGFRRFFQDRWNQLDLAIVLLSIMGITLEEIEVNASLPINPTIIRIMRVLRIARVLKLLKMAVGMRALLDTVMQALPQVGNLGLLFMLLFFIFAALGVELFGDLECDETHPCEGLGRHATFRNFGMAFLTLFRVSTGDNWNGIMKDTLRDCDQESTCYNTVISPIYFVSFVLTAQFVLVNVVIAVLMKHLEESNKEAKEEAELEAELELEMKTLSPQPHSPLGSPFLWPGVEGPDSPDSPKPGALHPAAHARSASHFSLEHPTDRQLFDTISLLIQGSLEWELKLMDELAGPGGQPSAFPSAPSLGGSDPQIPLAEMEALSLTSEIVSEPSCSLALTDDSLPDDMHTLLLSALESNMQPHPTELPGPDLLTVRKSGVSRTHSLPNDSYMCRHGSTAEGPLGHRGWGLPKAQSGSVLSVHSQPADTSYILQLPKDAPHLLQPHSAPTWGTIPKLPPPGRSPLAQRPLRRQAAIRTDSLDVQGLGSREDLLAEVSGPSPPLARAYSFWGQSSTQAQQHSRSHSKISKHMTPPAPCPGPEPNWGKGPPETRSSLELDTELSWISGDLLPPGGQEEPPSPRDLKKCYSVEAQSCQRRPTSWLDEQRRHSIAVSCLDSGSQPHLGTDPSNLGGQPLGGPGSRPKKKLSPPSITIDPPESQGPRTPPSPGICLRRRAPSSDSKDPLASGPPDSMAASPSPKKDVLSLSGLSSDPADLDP
Briefly: High-throughput CaV3.1 T-type FLIPR fluorescent assay. To be noted: Fluo-4 FLIPR. The protocol: Cells were plated in 384-well, clear-bottom, black-walled, poly-D-lysine coated plates (Becton Dickinson, Franklin Lake, N.J.) 2 days prior to use in the FLIPR assay. 100 μL of cells (2.0×10^6 cell/mL) containing doxycyline (Sigma-Aldrich, 1.5 μg/mL; to induce channel expression) were added to each well using a Multidrop (Thermo Scientific, Waltham, Mass.) and were maintained in 5% CO2 incubator at 37° C. On the morning of the assay, cells were transferred to a 5% CO2 incubator at 29° C.
Cells were washed with a wash buffer containing (in mM): 118 NaCl, 18.4 HEPES, 11.7 D-glucose, 0.05 CaCl2, 0.5 MgSO4, 1 KCl, and 1.2 KH2PO4, with the pH adjusted to 7.2 with NaOH. 4.4 μM of the fluorescent indicator dye, Fluo-4 (Invitrogen), prepared in pluronic acid
(Sigma-Aldrich), was loaded into the wells and incubated for 45 minutes at 29° C. in 5% CO2. Cells were then rinsed with the following low Ca^2+ buffer (in mM): 0.34 Na2HPO4, 4.2 NaHCO3, 0.44 KH2PO4, 0.41 MgSO4, 0.49 MgCl2-6H2O, 20 HEPES, 5.5 D-Glucose, 137 NaCl, 5.3 KCl, and 0.001 CaCl2, with 0.1% BSA and the pH adjusted to 7.2 with NaOH. Concentration-dependent response curves were generated from 5 mM stock solutions prepared in DMSO (Sigma-Aldrich) and diluted in the buffer containing low Ca^2+ and incubated for 20 minutes at 29° C. in 5% CO2. Calcium entry was evoked with an addition of (in mM): 0.34 Na2HPO4, 4.2 NaHCO3, 0.44 KH2PO4, 0.41 MgSO4, 0.49 MgCl2-6H2O, 20 HEPES, 5.5 D-Glucose, 137 NaCl, 5.3 KCl, and 6 CaCl2, with 0.1% BSA and the pH adjusted to 7.2 with NaOH. A change in the Fluo-4 fluorescence signal was assessed using FLIPR^TETRA™ instrument (Molecular Devices, Sunnyvale, Calif.) for 3 minutes following the elevation of extracellular KCl using an illumination wavelength of 470-495 nm with emissions recorded at 515-575 nm.
as §1, §2, §3

From patent US20140113898A1, “BISARYLSULFONE AND DIALKYLARYLSULFONE COMPOUNDS AS CALCIUM CHANNEL BLOCKERS” (Zalicus Pharmaceuticals Ltd., priority 2010, published 2014) come the findings set out here.

Where two headings read alike, the source gives them in different places.

T2 sequence (O95180 whole entry): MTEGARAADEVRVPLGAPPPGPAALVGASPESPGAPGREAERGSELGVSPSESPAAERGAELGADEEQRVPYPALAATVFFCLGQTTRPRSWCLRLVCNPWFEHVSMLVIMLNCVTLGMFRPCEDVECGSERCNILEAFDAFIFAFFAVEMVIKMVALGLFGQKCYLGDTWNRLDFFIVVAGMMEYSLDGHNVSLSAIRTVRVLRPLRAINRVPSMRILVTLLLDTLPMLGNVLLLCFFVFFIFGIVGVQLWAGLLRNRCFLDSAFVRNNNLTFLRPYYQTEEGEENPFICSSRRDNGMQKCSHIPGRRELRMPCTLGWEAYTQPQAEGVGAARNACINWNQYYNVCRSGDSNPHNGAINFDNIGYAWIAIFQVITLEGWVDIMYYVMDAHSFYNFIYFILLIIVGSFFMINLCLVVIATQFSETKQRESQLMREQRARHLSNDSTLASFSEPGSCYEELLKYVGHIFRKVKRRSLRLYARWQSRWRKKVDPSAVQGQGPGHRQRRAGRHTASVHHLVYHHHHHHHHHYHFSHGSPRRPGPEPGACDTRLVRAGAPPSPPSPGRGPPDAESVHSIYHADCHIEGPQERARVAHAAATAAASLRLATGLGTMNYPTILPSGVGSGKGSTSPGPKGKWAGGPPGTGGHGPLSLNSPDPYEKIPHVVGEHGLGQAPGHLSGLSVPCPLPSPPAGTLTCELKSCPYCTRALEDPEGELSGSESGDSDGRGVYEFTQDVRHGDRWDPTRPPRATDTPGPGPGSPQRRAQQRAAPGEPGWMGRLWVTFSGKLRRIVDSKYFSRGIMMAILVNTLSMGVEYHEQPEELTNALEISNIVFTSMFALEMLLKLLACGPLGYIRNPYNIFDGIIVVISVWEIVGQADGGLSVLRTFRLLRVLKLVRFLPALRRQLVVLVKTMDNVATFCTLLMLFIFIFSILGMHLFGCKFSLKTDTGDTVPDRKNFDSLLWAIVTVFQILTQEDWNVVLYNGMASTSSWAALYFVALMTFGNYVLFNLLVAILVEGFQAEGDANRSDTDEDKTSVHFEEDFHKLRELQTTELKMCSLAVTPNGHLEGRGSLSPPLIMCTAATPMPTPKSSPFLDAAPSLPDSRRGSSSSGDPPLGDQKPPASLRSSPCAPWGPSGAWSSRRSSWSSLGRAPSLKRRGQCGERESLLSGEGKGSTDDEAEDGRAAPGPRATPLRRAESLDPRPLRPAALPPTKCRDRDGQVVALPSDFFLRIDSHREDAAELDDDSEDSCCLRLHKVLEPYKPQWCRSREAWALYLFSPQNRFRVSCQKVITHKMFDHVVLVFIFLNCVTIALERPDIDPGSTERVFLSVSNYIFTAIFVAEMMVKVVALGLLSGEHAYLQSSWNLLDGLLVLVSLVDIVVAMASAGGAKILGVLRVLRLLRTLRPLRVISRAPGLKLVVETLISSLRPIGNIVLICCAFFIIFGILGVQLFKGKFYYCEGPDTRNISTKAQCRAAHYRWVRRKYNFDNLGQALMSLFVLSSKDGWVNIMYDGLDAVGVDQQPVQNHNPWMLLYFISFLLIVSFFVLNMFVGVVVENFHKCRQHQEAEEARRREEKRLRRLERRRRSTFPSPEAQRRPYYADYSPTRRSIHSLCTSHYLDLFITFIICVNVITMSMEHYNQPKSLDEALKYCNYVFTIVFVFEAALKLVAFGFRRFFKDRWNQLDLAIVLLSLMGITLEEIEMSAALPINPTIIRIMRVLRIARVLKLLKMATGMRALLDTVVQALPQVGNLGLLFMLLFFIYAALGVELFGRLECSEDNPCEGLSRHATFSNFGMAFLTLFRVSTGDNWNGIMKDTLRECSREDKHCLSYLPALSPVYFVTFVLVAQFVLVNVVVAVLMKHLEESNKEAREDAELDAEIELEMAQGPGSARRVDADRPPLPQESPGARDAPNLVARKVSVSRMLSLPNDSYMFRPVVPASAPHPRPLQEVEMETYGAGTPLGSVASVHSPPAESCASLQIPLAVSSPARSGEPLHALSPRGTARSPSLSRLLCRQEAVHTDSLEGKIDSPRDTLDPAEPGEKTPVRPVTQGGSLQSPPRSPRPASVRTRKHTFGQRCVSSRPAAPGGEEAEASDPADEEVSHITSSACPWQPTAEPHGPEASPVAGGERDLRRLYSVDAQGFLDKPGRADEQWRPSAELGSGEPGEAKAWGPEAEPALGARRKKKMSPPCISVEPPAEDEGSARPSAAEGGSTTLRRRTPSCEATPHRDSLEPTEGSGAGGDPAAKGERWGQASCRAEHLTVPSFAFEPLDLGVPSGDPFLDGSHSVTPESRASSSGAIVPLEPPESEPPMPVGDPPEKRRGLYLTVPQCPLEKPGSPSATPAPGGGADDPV

On to `CC(C)(C(=O)NCc1cccc(S(=O)(=O)c2cccc(C(F)(F)F)c2)c1)S(=O)(=O)c1cccc(C(F)(F)F)c1` [Compound 226, 2-methyl-2-((3-(trifluoromethyl)phenyl)sulfonyl)-N-(3-((3-(trifluoromethyl)phenyl)sulfonyl)benzyl)propanamide], for which the IC50 in test [1] (Table 5) came out at 0.11 µM; in test [2] (Table 5), 1.2 µM; in test [3] (Table 5) it was 1.41 µM.
For the molecule `CC(C)(CCN1Cc2nc(C(F)(F)F)ccc2C1=O)S(=O)(=O)c1cccc(C(F)(F)F)c1` [Compound 188, 6-(3-methyl-3-((3-(trifluoromethyl)phenyl)sulfonyl)butyl)-2-(trifluoromethyl)-6,7-dihydro-5H-pyrolo[3,4-b]pyridine-5-one], the IC50 in test [1] (Table 5) came to 0.42 µM; in test [2] (Table 5), 5.54 µM.
As to `O=C(NCc1ccc(S(=O)(=O)c2cccc(C(F)(F)F)c2)cn1)c1ccnc(C(F)(F)F)n1` [Compound 98, 2-(trifluoromethyl)-N-((5-((3-(trifluoromethyl)phenyl)sulfonyl)pyridin-2-yl)methyl)pyrimidine-4-carboxamide], the IC50 was 1.49 µM in test [1] (Table 4) and 9.16 µM in test [2] (Table 4).
As to `CC(C)(C(=O)N1CCC(c2nc3ccccc3[nH]2)CC1)S(=O)(=O)c1cccc(C(F)(F)F)c1` [Compound 138, 1-(4-(1H-benzol[d]imidazol-2-yl)piperidin-1-yl)-2-methyl-2-((3-(trifluoromethyl)phenyl)sulfonyl)propan-1-one], the IC50 in test [1] (Table 5) worked out at 1.48 µM; in test [2] (Table 5), 5.1 µM.
As for `O=C(CCC(F)(F)F)NCc1cccc(S(=O)(=O)c2cccc(C(F)(F)F)c2)c1` [Compound 54, 4,4,4-trifluoro-N-(3-((3-(trifluoromethyl)phenyl)sulfonyl)benzyl)butanamide], the results for the IC50 in test [1] (Table 4) and in test [2] (Table 4) were 0.4 µM and 6.71 µM, respectively.
For `O=C(NCc1ccc(S(=O)(=O)c2cccc(C(F)(F)F)c2)cc1)[C@H]1CCCCN1` [Compound 80, (R)-N-(4-((3-(trifluoromethyl)phenyl)sulfonyl)benzyl)piperidine-2-carboxamide] the same measures were 0.77 µM and 8.7 µM.
For the molecule `COc1ccc(S(=O)(=O)N2CCOCC2)cc1C(=O)NCC(C)(C)S(=O)(=O)c1cccc(C(F)(F)F)c1` [Compound 166, 2-methoxy-N-(2-methyl-2-((3-(trifluoromethyl)phenyl)sulfonyl)propyl)-5-(morpholinosulfonyl)benzamide], the IC50 came to 1.31 µM in test [1] (Table 5) and 9.68 µM in test [2] (Table 5).
Turning to `CC(C)(C(=O)Nc1ccc(Oc2ccc(C(F)(F)F)cn2)nc1)S(=O)(=O)c1cccc(C(F)(F)F)c1` [Compound 120, 2-methyl-2-((3-(trifluoromethyl)phenyl)sulfonyl)-N-(6-((5-(trifluoromethyl)pyridin-2-yl)oxy)pyridin-3-yl)propanamide], the IC50 in test [1] (Table 5) is 1.02 µM; in test [3] (Table 5) it was 5.69 µM.
As for `CC(C)(CNC(=O)c1cncc(C(F)(F)F)c1)S(=O)(=O)c1cccc(C(F)(F)F)c1` [Compound 176, N-(2-methyl-2-((3-(trifluoromethyl)phenyl)sulfonyl)propyl)-5-(trifluoromethyl)nicotinamide], the figures for the IC50 in test [1] (Table 5) and in test [2] (Table 5) were 1.31 µM and 5.34 µM, respectively.
On to `O=C1c2ccc(C(F)(F)F)nc2CN1Cc1ccc(S(=O)(=O)c2cccc(C(F)(F)F)c2)cc1` [Compound 56, 2-(trifluoromethyl)-6-(4-((3-(trifluoromethyl)phenyl)sulfonyl)benzyl)-6,7-dihydro-5H-pyrrolo[3,4-b]pyridin-5-one], for which the IC50 was 0.31 µM in test [1] (Table 4) and 2.66 µM in test [2] (Table 4).
The matching figures for `O=C(CCC(F)(F)F)NCc1ccc(S(=O)(=O)c2cccc(C(F)(F)F)c2)cc1` [Compound 53, 4,4,4-trifluoro-N-(4-((3-(trifluoromethyl)phenyl)sulfonyl)benzyl)butanamide]: 0.34 µM and 4.1 µM.
As for `Cc1cc(Cl)ccc1C(=O)NCC(C)(C)S(=O)(=O)c1cccc(C(F)(F)F)c1` [Compound 168, 4-chloro-2-methyl-N-(2-methyl-2-((3-(trifluoromethyl)phenyl)sulfonyl)propyl)benzamide], the IC50 in test [1] (Table 5) came to 1.02 µM; in test [2] (Table 5), 5.16 µM.
For the molecule `NC1(CC(=O)NCc2ccc(S(=O)(=O)c3cccc(C(F)(F)F)c3)cc2)CCCCC1` [Compound 86, 2-(1-aminocyclohexyl)-N-(4-((3-(trifluoromethyl)phenyl)sulfonyl)benzyl)acetamide], the IC50 is 0.31 µM in test [1] (Table 4) and 5.5 µM in test [2] (Table 4).
Turning to `N[C@@H](C(=O)NCc1ccc(S(=O)(=O)c2cccc(C(F)(F)F)c2)cc1)c1ccccc1` [Compound 63, (R)-2-amino-2-phenyl-N-(4-((3-(trifluoromethyl)phenyl)sulfonyl)benzyl)acetamide], the values for the IC50 in test [1] (Table 4) and in test [3] (Table 4) were 0.44 µM and 0.58 µM, respectively.
As for `O=C(NCc1ccc(S(=O)(=O)c2cccc(C(F)(F)F)c2)cc1)[C@@H]1CCCCN1` [Compound 79, (S)-N-(4-((3-(trifluoromethyl)phenyl)sulfonyl)benzyl)piperidine-2-carboxamide], the IC50 in test [1] (Table 4) stood at 1.45 µM; in test [2] (Table 4), 8.44 µM.
`CC(C)(CNC(=O)c1ccnc(N2CCCC2)c1)S(=O)(=O)c1cccc(C(F)(F)F)c1` [Compound 161, N-(2-methyl-2-((3-(trifluoromethyl)phenyl)sulfonyl)propyl)-2-(pyrrolidin-1-yl)isonicotinamide]: the IC50 in test [1] (Table 5) was 1.12 µM; in test [2] (Table 5) it was 8.22 µM.
Take `CC(C)(CNC(=O)c1ccc(C(F)(F)F)nc1)S(=O)(=O)c1cccc(C(F)(F)F)c1` [Compound 175, N-(2-methyl-2-((3-(trifluoromethyl)phenyl)sulfonyl)propyl)-6-(trifluoromethyl)nicotinamide]: the values for the IC50 in test [1] (Table 5) and in test [2] (Table 5) were 3.19 µM and 5.32 µM, respectively.
